For test [1], the target named is T1, SARS-CoV-2 PLpro (nsp3 1564–1878) (Severe acute respiratory syndrome coronavirus 2, UniProt P0DTD1). Nature of the test: biochemical. The arrangement: FRET-quenched peptide (Pro3) cleavage by PLpro, 10 min pre-incubation, slope over 20 min, normalised to no-compound control. The following applies: low concentration screen, read-out: % of control remaining.
Test [2] has as its target T1, SARS-CoV-2 PLpro (nsp3 1564–1878). Nature of the test: biochemical. Also on record: FRET-quenched peptide (Pro3) cleavage by PLpro, 10 min pre-incubation, slope over 20 min, normalised to no-compound control. To be noted: high concentration screen, read-out: % of control remaining.

Structures can show the parent of a compound that is named as a salt. Where two headings read alike, the source gives them in different places.

`CC(C)C[C@H](NC(=O)[C@H](CCc1ccccc1)NC(=O)CN1CCOCC1)C(=O)N[C@@H](Cc1ccccc1)C(=O)N[C@@H](CC(C)C)C(=O)[C@@]1(C)CO1` [Carfilzomib (PR-171)]: the remaining activity at 1.25 µM in test [1] (Well no.=5173) came out at 103%. In test [2] (Well no.=5173), the remaining activity at 3.75 µM is 97.1%.
`NC(=O)N[C@@H](CCC(=O)O)C(=O)O` [Carglumic Acid]: the remaining activity at 1.25 µM in test [1] (Well no.=7594) stood at 99.7%. In addition, the remaining activity at 3.75 µM in test [2] (Well no.=7594) amounted to 102%.
Turning to `CN(C)C(=O)N[C@H]1CC[C@H](CCN2CCN(c3cccc(Cl)c3Cl)CC2)CC1` [Cariprazine (hydrochloride)], the remaining activity at 1.25 µM in test [1] (Well no.=6661) came to 108%. Further, the remaining activity at 3.75 µM in test [2] (Well no.=6661) was found to be 103%.
With `CCCC(C)(COC(N)=O)COC(=O)NC(C)C` (stereo not shown) [Carisoprodol], in test [1] (Well no.=380), the remaining activity at 1.25 µM is 95.8%. Also, in test [2] (Well no.=380), the remaining activity at 3.75 µM is 95.3%.
With `Cc1c(C(=O)O)c(O)cc2c1C(=O)c1c(O)c([C@@H]3O[C@H](CO)[C@@H](O)[C@H](O)[C@H]3O)c(O)c(O)c1C2=O` [Carminic acid], in test [1] (Well no.=3101), the remaining activity at 1.25 µM is 102%. Besides, the remaining activity at 3.75 µM in test [2] (Well no.=3101) was found to be 103%.
`O=NN(CCCl)C(=O)NCCCl` [Carmustine]: the remaining activity at 1.25 µM in test [1] (Well no.=137) was 102%. Also, the remaining activity at 3.75 µM in test [2] (Well no.=137) amounted to 102%.
For the compound `CC(C)c1cc2c(c(O)c1O)[C@@]1(C(=O)O)CCCC(C)(C)[C@@H]1CC2` [Carnosic acid], the remaining activity at 1.25 µM in test [1] (Well no.=4038) was found to be 101%. In addition, the remaining activity at 3.75 µM in test [2] (Well no.=4038) is 104%.
For `CC(C)(C)NCC(O)COc1cccc2c1CCC(=O)N2` (stereo not shown) [Carteolol (hydrochloride)], the remaining activity at 1.25 µM in test [1] (Well no.=7623) worked out at 101%. The remaining activity at 3.75 µM in test [2] (Well no.=7623) was found to be 97.2%.
Turning to `COc1ccccc1OCCNCC(O)COc1cccc2[nH]c3ccccc3c12` (stereo not shown) [Carvedilol], the remaining activity at 1.25 µM in test [1] (Well no.=1569) was determined as 99.6%; in test [1] (Well no.=4051) it was 103%; in test [1] (Well no.=6702), 97.7%. In addition, the remaining activity at 3.75 µM turned out to be 103% in test [2] (Well no.=1569), 104% in test [2] (Well no.=4051) and 97.8% in test [2] (Well no.=6702).
For `NC(=O)c1ccc(-c2nc(-c3ccc4c(c3)OCCO4)c(-c3ccccn3)[nH]2)cc1` [Casein Kinase I Inhibitor, D4476], the remaining activity at 1.25 µM in test [1] (Well no.=2372) amounted to 102%. Further, the remaining activity at 3.75 µM in test [2] (Well no.=2372) stood at 99.2%.
On to `O=C(O)C=Cc1cc(Br)c(Br)c(Br)c1Br` [Casein Kinase II Inhibitor III, TBCA], for which, in test [1] (Well no.=2374), the remaining activity at 1.25 µM turned out to be 102%. Besides, the remaining activity at 3.75 µM in test [2] (Well no.=2374) came out at 104%.
On to `COc1cc(Nc2ncc3ccn(-c4cccc(CCC#N)c4)c3n2)cc(OC)c1OC` [Casein Kinase II Inhibitor IV], for which the remaining activity at 1.25 µM in test [1] (Well no.=2381) turned out to be 104%. In test [2] (Well no.=2381), the remaining activity at 3.75 µM amounted to 105%.
In the case of `CC[C@H](C)C[C@H](C)CCCCCCCCC(=O)N[C@H]1C[C@@H](O)[C@@H](NCCN)NC(=O)[C@@H]2[C@@H](O)CCN2C(=O)[C@H]([C@H](O)CCN)NC(=O)[C@H]([C@H](O)[C@@H](O)c2ccc(O)cc2)NC(=O)[C@@H]2C[C@@H](O)CN2C(=O)[C@H]([C@@H](C)O)NC1=O` [Caspofungin Acetate], in test [1] (Well no.=5317), the remaining activity at 1.25 µM worked out at 99.9%. Moreover, the remaining activity at 3.75 µM in test [2] (Well no.=5317) amounted to 95.7%.
`O[C@H]1[C@H](O)[C@@H](O)CN2CC[C@H](O)[C@H]12` [Castanospermine]: the remaining activity at 1.25 µM in test [1] (Well no.=3135) was determined as 102%. For the same compound, the remaining activity at 3.75 µM in test [2] (Well no.=3135) was 102%.
With `OC[C@H]1O[C@@H](O[C@@H]2OC=C[C@H]3[C@H](O)[C@@H]4O[C@]4(CO)[C@@H]23)[C@H](O)[C@@H](O)[C@@H]1O` [Catalpol], the remaining activity at 1.25 µM in test [1] (Well no.=3274) came to 102%. The remaining activity at 3.75 µM in test [2] (Well no.=3274) worked out at 103%.
Take `CCC1=C[C@@H]2CN3CCc4c([nH]c5ccccc45)[C@@](C(=O)OC)(C2)[C@@H]13` [Catharanthine]: in test [1] (Well no.=3595), the remaining activity at 1.25 µM was determined as 104%. Besides, the remaining activity at 3.75 µM in test [2] (Well no.=3595) came to 107%.
As for `CCN1/C(=C/C(C)=O)Sc2ccc(OC)cc21` [Cdc2-Like Kinase Inhibitor, TG003], the remaining activity at 1.25 µM in test [1] (Well no.=2410) was 106%. Moreover, the remaining activity at 3.75 µM in test [2] (Well no.=2410) came out at 109%.
Take `O=C1N=C(NCc2cccs2)S/C1=C\c1ccc2ncccc2c1` [Cdk1 Inhibitor IV, RO-3306]: in test [1] (Well no.=2347), the remaining activity at 1.25 µM was found to be 103%. The remaining activity at 3.75 µM in test [2] (Well no.=2347) came to 104%.
Consider `CCn1cnc2c(Nc3cccc(Cl)c3)nc(N[C@@H]3CCCC[C@@H]3N)nc21` [Cdk1 Inhibitor, CGP74514A], for which the remaining activity at 1.25 µM in test [1] (Well no.=2366) worked out at 96.7%. Besides, in test [2] (Well no.=2366), the remaining activity at 3.75 µM worked out at 96.1%.
Consider `O=C1Nc2ccccc2/C1=C\c1c(Cl)[nH]c2ccccc12` [Cdk1 Inhibitor], for which the remaining activity at 1.25 µM in test [1] (Well no.=2364) is 101%. The remaining activity at 3.75 µM in test [2] (Well no.=2364) was found to be 104%.
For the compound `Nc1nc(Nc2ccc(S(N)(=O)=O)cc2)nn1C(=S)Nc1c(F)cccc1F` [Cdk1/2 Inhibitor III], the remaining activity at 1.25 µM in test [1] (Well no.=2368) was 99.3%. In test [2] (Well no.=2368), the remaining activity at 3.75 µM turned out to be 102%.
Consider `Nc1[nH]nc2nc3ccccc3nc12` [Cdk1/5 Inhibitor], for which the remaining activity at 1.25 µM in test [1] (Well no.=2370) turned out to be 96.8%. Moreover, the remaining activity at 3.75 µM in test [2] (Well no.=2370) came out at 98.7%.
Take `COc1ccc(CNc2nc(N(CCO)CCO)nc3c2ncn3C(C)C)cc1` [Cdk2 Inhibitor III]: in test [1] (Well no.=2416), the remaining activity at 1.25 µM was determined as 107%. For the same compound, in test [2] (Well no.=2416), the remaining activity at 3.75 µM is 110%.
With `NS(=O)(=O)c1ccc(N=Nc2c(O)[nH]c3ccc(Br)cc23)cc1` [Cdk2 Inhibitor II], the remaining activity at 1.25 µM in test [1] (Well no.=2383) stood at 102%. In addition, the remaining activity at 3.75 µM in test [2] (Well no.=2383) was 103%.
With `CCN(CC)C(=O)c1ccc(Nc2nc(OCC3CCCCC3)c3[nH]cnc3n2)cc1` [Cdk2 Inhibitor IV, NU6140], in test [1] (Well no.=2418), the remaining activity at 1.25 µM stood at 100%. The remaining activity at 3.75 µM in test [2] (Well no.=2418) was 94.5%.
On to `COc1ccc(OC)c2c(=S)c3ccccc3[nH]c12` [Cdk4 Inhibitor II, NSC 625987], for which the remaining activity at 1.25 µM in test [1] (Well no.=2406) was found to be 102%. Further, in test [2] (Well no.=2406), the remaining activity at 3.75 µM was determined as 108%.
In the case of `O=C1NC(=O)c2c1c1c3ccccc3[nH]c1c1[nH]c3cc(Br)ccc3c21` [Cdk4 Inhibitor], the remaining activity at 1.25 µM in test [1] (Well no.=2404) is 99.9%. For the same compound, in test [2] (Well no.=2404), the remaining activity at 3.75 µM worked out at 99.9%.
With `Nc1n[nH]c(N)c1N=Nc1ccc(O)cc1` [Cdk9 Inhibitor II], the remaining activity at 1.25 µM in test [1] (Well no.=2395) came out at 104%. For the same compound, the remaining activity at 3.75 µM in test [2] (Well no.=2395) stood at 103%.
Regarding `CC(C)n1cnc2c(NCc3ccccc3O)nc(NCCCO)nc21` [Cdk Inhibitor, p35], the remaining activity at 1.25 µM in test [1] (Well no.=2387) is 94.5%. In test [2] (Well no.=2387), the remaining activity at 3.75 µM turned out to be 97%.
For `CC(C)c1nn(-c2c(Cl)cccc2Cl)c2nc(Cc3ccc(OCCO)cc3)[nH]c(=O)c12` [Cdk/Crk Inhibitor], in test [1] (Well no.=2420), the remaining activity at 1.25 µM was determined as 105%. For the same compound, the remaining activity at 3.75 µM in test [2] (Well no.=2420) is 105%.

Values taken from paper PMC8286840, “Identifying SARS-CoV-2 antiviral compounds by screening for small molecule inhibitors of Nsp3 papain-like protease” (Biochemical Journal, 2021).
